Laboratory results: patent publication US5521061A, “Enhancement of probe signal in nucleic acid-mediated in-situ hybridization studies” (Aprogenex, Inc., priority 1992, dated 1996)

Assays:
[1] = test system: Hepg 2 cells; experiment: Slide in situ hybridization, DMSO plus one additional compound (Example 2), HYR probe; assay type: cell-based, human; conditions: 10% (v/v) additional compound with 9% DMSO; slide rating x 0.5, water control = 2; average of four experiments
Experimental: Slide in situ Cell Preparation and Hybridization Protocol
1) Cells were suspended in a fixative (3 vol ethanol plus 1 vol methanol) and transferred to glass slides by centrifugation using a Cytospin apparatus.
2) The assay solution (consisting of the hybridization cocktail HC alone or mixed with a compound or compounds being tested as an enhancer) with the DNA probe (25 ul) was placed over the cells and covered with a coverslip.
3) The slide was heated at 90° C. for 5 minutes for DNA denaturation, then incubated at 46° C. for 30 minutes for hybridization.
4) Cells were washed once with the wash solution #1, which was equilibrated at 42° C. Then cells were washed ten times with wash solution #2, which was equilibrated at 42° C.
5) Mounting solution (50% glycerol (v/v) in 1×PBS plus the nuclear stain Hoechst, (#33258; 1 ug/ml) was placed on the cells and covered with a coverslip.
6) The hybridization signal was observed under an Olympus BH10 microscope with fluorescent capabilities using a rhodamine derivative filters (excitation wavelength of 567 nm, emission wavelength of 584 nm).
The inclusion of DMSO in an in situ assay solution increased the permeation of the nucleic acid probes into the cells and gave hybridization signal in over 95% of the cells. In this Example, we show the effect of adding, in addition to DMSO, 10 percent (v/v) of an additional compound to the assay solution. The additional compounds added were: squalane (an aliphatic alkane), dodecyl alcohol (an alcohol), beta-cyclodextrin (a sugar), isopropyl palmitate (a fatty acid ester), 1,2, propanediol (an alcohol), pyrrolidinone (a lactam) and hexamethyldisiloxane (an organic silane).
In this Example, the hybridization cocktail consisted of nine volumes of HC-DMSO plus one volume of an additional compound. In the control sample, one volume of water was added instead of one volume of additional compound. As a result, in all samples, the concentration of DMSO in the cocktail was 9 percent (v/v).
The Slide In Situ Cell Preparation and Hybridization protocol was followed. The cells used were Hepg 2 cells. The probe used was an HYR probe specific for human Y chromosome α-satellite DNA repeated sequences; at its 5' end, via an Aminolink linker molecule, the probe was linked to a Texas Red moiety. A signal intensity of 4 was assigned to the slide in which the assay solution was HC plus 10% DMSO (control slide) and all other slides were rated 1, 2, 3 or 4 in comparison to the control slide, depending on whether the intensity was 1, 2, 3, or 4 times that of the control slide, respectively.
The results are an average of four independent experiments.

[2] = test system: Hela cells; experiment: Liquid in situ hybridization with flow cytometry, DMSO plus additional compound (Example 4), 28S RNA and NR probes; assay type: cell-based; conditions: for 28S RNA Probe, mean LFL1 / NR Probe, mean LFL1 / Ratio 28S RNA/NR (ratio of mean LFL1): 10% additional compound with 9% DMSO; for 28S RNA Probe, mean LFL1: FITC 28S RNA probe, water control 6.070, average of four experiments; for NR Probe, mean LFL1: FITC NR probe (non-specific binding and autofluorescence), water control 0.137; for Ratio 28S RNA/NR (ratio of mean LFL1): water control 44; for Signal brightness compared to nine percent DMSO alone: additional compound in combination with nine percent DMSO; for Signal intensity after precipitation (biphasic mixture): 10 percent compound with 9% DMSO
Source text: (§1) A Coulter Profile II flow cytometer was used for flow cytometry. With FITC as the probe dye, the filter for LFL3 was a 635 nm long pass filter and the filter for LFL1 was a 540 bp filter; the excitation wavelength was 488 nm. PMT1 and PMT3 settings were adjusted as required. A typical useful setting when fluorescein is the dye moiety is to have a PMT1 setting of 1100, a PMT3 setting of 900, and color compensation (PMT1, PMT3) of 15 percent.
(§2) Liquid in Situ Cell Preparation and Hybridization Protocol
(§3) 1. Cells were fixed in solution F, then resuspended in 2x SSC.
(§4) 2. The cells were spun out of solution and resuspended in an assay solution (consisting of the hybridization cocktail HC alone or in combination with a compound or compounds being tested as an enhancer.)
(§5) 3. After 30 min. at 42° C., the cells were washed in wash solution #1 preheated to 42° C. by centrifuging them out of the assay solution.
(§6) 4. Cells were next washed in wash solution #2 preheated to 42° C.
(§7) 5. Cells were resuspended in a 1X PBS solution containing 0.002% trypan blue as a counterstain.
(§8) 6. Cells were run on a flow cytometer and a "Count vs. LFL1" histogram was generated. ("Count" refers to cell count.) This histogram was used as the basis for determining the mean LFL1.
The effect on probe signal intensity of adding, in addition to DMSO, additional compounds to the assay solution was determined in an in situ liquid hybridization assay. The data was analyzed by flow cytometry.
The Liquid In Situ Cell Preparation and Hybridization Protocol was followed. The cells used were Hela cells. The probes used were a 28S RNA probe (SEQ ID NO: 1) and an NR probe.
The 28S RNA probe (SEQ ID NO: 1) is a target-specific probe specific for ribosomal RNA fluorescence obtained with it represents the sum of fluorescence from target-bound probe, non-specifically bound probe and autofluorescence from cellular molecules. The NR probe (SEQ ID NO: 2) is specific for a plant nucleic acid sequence and, in the current Example, the fluorescence obtained with it represent the sum of fluorescence from non-specifically bound probe and autofluorescence.
(§9) In this experiment, the hybridization cocktail consisted of nine volumes of HC-DMSO plus one volume of additional compound. In the control sample, one volume of water replaced the one volume of additional compound. As a result, in all samples, the concentration of DMSO was 9 percent (v/v).
The ratio, 28S/NR, is the ratio of the mean LFL1 observed with the 28S RNA probe (SEQ ID NO: 1) to the mean LFL1 observed with the NR probe (SEQ ID NO: 2). The results in the "28S RNA probe" and "NR probe" columns give the mean LFL1 observed with the 28S RNA and NR probes, respectively (SEQ ID NO: 1 and SEQ ID NO: 2, respectively).

[3] = test system: α-satellite DNA; experiment: Liquid in situ hybridization with flow cytometry, DMSO plus squalane plus additional compound (Example 5), α-satellite DNA and NR probes; assay type: cell-based; conditions: for NR Probe, mean LFL1: DMSO-only control 0.175; for α-SAT Probe, mean LFL1: DMSO-only control 3.829; for Ratio α-SAT/NR (ratio of mean LFL1): DMSO-only control 22; for Increase of DNA probe signal intensity compared to 9% DMSO alone: DMSO plus squalane plus the additional compound
Source text: as §1, §2, §3, §4, §5, §6, §7, §8
The Liquid In Situ Cell Preparation and Hybridization Protocol was followed.
The "α-satellite" DNA probe is a target specific probe specific α-satellite DNA. Fluorescence obtained with it represents the sum of fluorescence from target-bound probe, non-specifically bound probe and autofluorescence from cellular molecules.
The effect of a combination of DMSO and squalane on the probe signal was measured as was that combination further enhanced with a third compound.
In this Example, in all but two cases, the hybridization cocktail consisted of 9 volumes of HC-DMSO, a half volume of squalane, and a half volume of an additional compound. In one case, the additional compound was replaced by water, so that the hybridization compound consisted of 9 volumes of HC-DMSO, a half volume of squalane, and a half volume of water. In the control sample, the cocktail consisted of nine volumes of HC-DMSO and one volume of water. As a result, in all samples, there was 9 percent DMSO (v/v). When present, squalane was present at 5 percent. When present, the additional compound was present at 5%.
The ratio, α-SAT/NR, is the ratio of the mean LFL1 for the α-satellite DNA probe ([…]) to the mean LFL1 for the NR probe.

[4] = test system: Human female white blood cells (karyotype XX); experiment: Signal enhancers in the mounting solution after in situ hybridization (Example 6), HXR probes, fluorescent microscope; assay type: cell-based; conditions: one volume compound plus 9 volumes mounting solution; rhodamine HXR probes; water control = 1
Experimental: After the in situ hybridization step, the cells were washed and then modified mounting solution was added and cells were observed under the microscope for fluorescence signal. Modified mounting solution was 9 volumes of mounting solution and one volume of additional compound, which was the compound being tested for its ability to be a signal enhancer. Mounting solution consisted of 0.1% 1,4 diphenylamine (antifade) in 50% glycerol (v/v), and nuclear stain Hoechst (#33258; 1 ug/ml).
Human female white blood cells (karyotype XX) were hybridized at 85° C. for 15 minutes with female chromosome HXR probes labelled with a rhodamine fluor. Cells were washed with wash buffers #1 and #2, and then suspended in a modified mounting solution. The additional compound in the modified mounting solution was varied; as a control, water was used as the additional compound. The signal intensity was observed under the fluorescent microscope.

[5] = Precipitation of additional compound from the hybridization cocktail (Example 4); assay type: physicochemical; conditions: 10 percent in hybridization cocktail (HC-DMSO)
Source text: as §9

[6] = 5% additional compound with 5% squalane and 9% DMSO
[7] = 5% squalane with 9% DMSO, water instead of additional compound

Compound	Fluorescent signal (Scale of 1 to 4) [1]	28S RNA Probe, mean LFL1 [2]	NR Probe, mean LFL1 [2]	Ratio 28S RNA/NR (ratio of mean LFL1) [2]	Signal brightness compared to nine percent DMSO alone [2]	NR Probe, mean LFL1 [3, 6]	α-SAT Probe, mean LFL1 [3, 6]	Ratio α-SAT/NR (ratio of mean LFL1) [3, 6]	Increase of DNA probe signal intensity compared to 9% DMSO alone [3]	Signal Intensity Scale of 1 to 4 [4]	Signal intensity after precipitation (biphasic mixture) [2]	NR Probe, mean LFL1 [3, 7]	α-SAT Probe, mean LFL1 [3, 7]	Ratio α-SAT/NR (ratio of mean LFL1) [3, 7]	Increase of DNA probe signal intensity compared to DMSO alone ([3]; squalane plus DMSO) [fold]	Precipitation from solution [5]
CCCCCCCCCCCCCCCC(=O)OC(C)C [isopropyl palmitate]	1.5	8.057	0.140	58	increased the signal brightness	0.117	5.988	52	2.4 fold	4						
CC(O)CO (stereo not drawn) [1,2-propanediol]	2	8.227	0.148	56	increased the signal brightness	0.151	5.876	39	1,8 fold	4						
CCCCCCCC/C=C\CCCCCCCC(=O)O [oleic acid]	2	3.643	0.142	26												
CC(C)CCCC(C)CCCC(C)CCCCC(C)CCCC(C)CCCC(C)C (stereo not drawn) [squalane]	2	0.611	0.123							3	markedly decreased	0.125	4.604	37	1.68	precipitation from solution
CCCCCCCC/C=C\CCCCCCCCO [oleyl alcohol]	1.5	0.731	0.136							3	markedly decreased					precipitation from solution
O=C1CCCN1 [2-pyrrolidinone]	2	10.19	0.133	77	increased the signal brightness	0.135	10.38	77	3.5 fold	3						
hydroxypropylcyclodextrin										2						
C[Si](C)(C)O[Si](C)(C)C [hexamethyldisiloxane]	1	7.426	0.126	59	increased the signal brightness					2						
CC(C)=CCC/C(C)=C/CC/C(C)=C/CC/C=C(\C)CC/C=C(\C)CCC=C(C)C [squalene]										3						
OC[C@H]1O[C@@H]2O[C@H]3[C@H](O)[C@@H](O)[C@@H](O[C@H]4[C@H](O)[C@@H](O)[C@@H](O[C@H]5[C@H](O)[C@@H](O)[C@@H](O[C@H]6[C@H](O)[C@@H](O)[C@@H](O[C@H]7[C@H](O)[C@@H](O)[C@@H](O[C@H]8[C@H](O)[C@@H](O)[C@@H](O[C@H]1[C@H](O)[C@H]2O)O[C@@H]8CO)O[C@@H]7CO)O[C@@H]6CO)O[C@@H]5CO)O[C@@H]4CO)O[C@@H]3CO [beta-cyclodextrin]	1.5	9.593	0.135	71	increased the signal brightness	0.131	3.720	29								
